# Data reported in paper PMC12442081, “Combating Fuel Biocontamination: Tailored Antimicrobial Peptides and an Innovative Delivery Strategy” (ACS Applied Bio Materials, 2025).
# Where no end group is shown, it is not given here.
# Tests used:
# [1] = test system: Kocuria rosea (KR); assay: Effectiveness of peptides on spiked fuel samples (aqueous layer); assay type: cell-based; design: key: (+) =1 (implying peptide activity in fuel environment); (X) = 0 (implying no activity in the desired range, indicated by microbial proliferation); Fuel x = -1(implying no activity in fuel environment); conditions: initial screening in spiked fuel
# Outline: (§1)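 Filter-sterilized fuel was mixed 1:1 (v/v) with BH medium, the organism was inoculated into the bottom aqueous phase, and peptides were added there at their MICs. Cultures were held aerobically at 30 °C for 30 days, with both layers plated on LBA at 7, 14, 21 and 30 days for viability.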
# [2] = test system: Sphingomonas paucimobilis (SP); assay: as above; assay type: cell-based; design: key: (+) =1 (implying peptide activity in fuel environment); (X) = 0 (implying no activity in the desired range, indicated by microbial proliferation); Fuel x = -1(implying no activity in fuel environment); conditions: initial screening in spiked fuel
# Outline: as §1
# [3] = test system: Dermacoccus nishinomiyaensis (DN); assay: as above; assay type: cell-based; design: key: (+) =1 (implying peptide activity in fuel environment); (X) = 0 (implying no activity in the desired range, indicated by microbial proliferation); Fuel x = -1(implying no activity in fuel environment); conditions: initial screening in spiked fuel
# Outline: as §1
# [4] = test system: Hormoconis resinae (HR); assay: as above; assay type: cell-based; design: key: (+) =1 (implying peptide activity in fuel environment); (X) = 0 (implying no activity in the desired range, indicated by microbial proliferation); Fuel x = -1(implying no activity in fuel environment); conditions: initial screening in spiked fuel
# Outline: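 Viability read-out: aqueous- and fuel-layer aliquots plated on agar at days 7, 14, 21, 30. Setup: sterile fuel/BH medium 1:1 (v/v), inoculum in aqueous phase, peptide dosed at MIC into aqueous layer, aerobic 30 °C, 30 d.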
# [5] = test system: Roseomonas mucosa (RM); assay: as above; assay type: cell-based; design: key: (+) =1 (implying peptide activity in fuel environment); (X) = 0 (implying no activity in the desired range, indicated by microbial proliferation); Fuel x = -1(implying no activity in fuel environment); conditions: initial screening in spiked fuel
# Outline: as §1
# [6] = test system: Macrococcus caseolyticus (MC); assay: as above; assay type: cell-based; design: key: (+) =1 (implying peptide activity in fuel environment); (X) = 0 (implying no activity in the desired range, indicated by microbial proliferation); Fuel x = -1(implying no activity in fuel environment); conditions: initial screening in spiked fuel
# Outline: as §1
# [7] = test system: Bacillus licheniformis (BL); assay: as above; assay type: cell-based; design: key: (+) =1 (implying peptide activity in fuel environment); (X) = 0 (implying no activity in the desired range, indicated by microbial proliferation); Fuel x = -1(implying no activity in fuel environment); conditions: initial screening in spiked fuel
# Outline: as §1
# [8] = test system: Pseudomonas aeruginosa (PA); assay: as above; assay type: cell-based; design: key: (+) =1 (implying peptide activity in fuel environment); (X) = 0 (implying no activity in the desired range, indicated by microbial proliferation); Fuel x = -1(implying no activity in fuel environment); conditions: initial screening in spiked fuel
# Outline: as §1
# [9] = test system: Micrococcus yunnanensis (MY); assay: as above; assay type: cell-based; design: key: (+) =1 (implying peptide activity in fuel environment); (X) = 0 (implying no activity in the desired range, indicated by microbial proliferation); Fuel x = -1(implying no activity in fuel environment); conditions: initial screening in spiked fuel
# Outline: as §1
# [10] = test system: Pseudomonas aeruginosa (PA) ATCC 39327; assay type: cell-based; conditions: ATCC 39327
# Outline: (§2)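 Overnight LB cultures, 37 °C → mid-log → 5 × 10^5 CFU/mL; 1:1 with serially diluted peptides, o/n 37 °C, ambient air. MIC = lowest conc. inhibiting growth (plate reader). n = 3, mean reported.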
# [11] = test system: Sphingomonas paucimobilis (SP); assay type: cell-based
# Outline: as §2
# [12] = test system: Micrococcus yunnanensis (MY) ATCC 12698; assay type: cell-based
# Outline: as §2
# [13] = test system: Dermacoccus nishinomiyaensis (DN) ATCC 29093; assay type: cell-based
# Outline: as §2
# [14] = test system: Kocuria rosea (KR) ATCC 186; assay type: cell-based
# Outline: as §2
# [15] = test system: Bacillus licheniformis (BL) ATCC 14580; assay type: cell-based; conditions: ATCC 14580
# Outline: as §2
# [16] = test system: Macrococcus caseolyticus (MC) ATCC 13548; assay type: cell-based
# Outline: as §2
# [17] = test system: Roseomonas mucosa (RM) ATCC BAA-692; assay type: cell-based
# Outline: as §2
# [18] = HPLC retention time as a function of peptide hydrophobicity; assay type: physicochemical; conditions: chromatographic, Polaris 5 C18-A reverse phase, 0.1% TFA water / 0.1% TFA acetonitrile gradient, 30 min, 300 μM peptide
# Outline: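 Reverse-phase C18 HPLC used water and acetonitrile, each with 0.1% (v/v) TFA, under a constant gradient run for 30 min after injection. Samples were 300 μM peptide in acetonitrile–water (1:4).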
# [19] = test system: Sheep red blood cells (RBCs); assay: Hemolysis assay; assay type: cell-based
# Protocol: The RBCs were centrifuged at 1000g for 15 min at 4 °C to remove the buffy coat and washed 3 times with PBS. 100 μL of 4% (v/v) RBC was suspended in PBS and added into sterilized 96-well plates. 100 μL of peptide solution was added to the suspension of RBCs by serial dilution starting from 200 μM to […] and incubated overnight at 37 °C. Sample absorbance at 545 nm was measured to determine hemoglobin release after centrifuging the plate at 600 g for 10 min. The percentage of cell lysis was calculated using the following formula (eq ). , 1 %lysis=OD545(test)−OD545(blank)/OD545(totallysis)−OD545(blank)×100
# [20] = test system: microbial clusters MY, KR, DN, MC, BL, RM, SP, PA, HR; assay: Broad-spectrum activity score (in-house scoring matrix); conditions: sum over 9 microbial clusters: (+) = 1, (X) = 0, Fuel x = -1
# Outline: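 Each peptide is scored per microbial cluster from its MIC/efficacy with fuel co-incubation: +1 = active in the fuel environment, 0 = no activity in the desired range (microbial proliferation), −1 = no activity in the fuel environment. The score is built from these per-cluster points.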
sequence,measurement,setting,value
ILPWKWPWWPFRR [P4],activity considering MIC value/efficacy upon fuel co-incubation,[1],+
same,activity considering MIC value/efficacy upon fuel co-incubation,[2],+
same,activity considering MIC value/efficacy upon fuel co-incubation,[3],+
same,activity considering MIC value/efficacy upon fuel co-incubation,[4],X
same,activity considering MIC value/efficacy upon fuel co-incubation,[5],+
same,activity considering MIC value/efficacy upon fuel co-incubation,[6],+
same,activity considering MIC value/efficacy upon fuel co-incubation,[7],+
same,activity considering MIC value/efficacy upon fuel co-incubation,[8],X
same,activity considering MIC value/efficacy upon fuel co-incubation,[9],+
same,MIC,[10],7.8 µM
same,MIC,[11],0.9 µM
same,MIC,[12],0.9 µM
same,MIC,[13],0.9 µM
same,MIC,[14],0.9 µM
same,MIC,[15],0.9 µM
same,MIC,[16],0.9 µM
same,MIC,[17],3.9 µM
same,"R t, retention time of peptide on HPLC column as a function of peptide hydrophobicity",[18],12.891 min
same,"HL50, conc. to reach 50% cell lysis",[19],10 µM
same,Score,[20],7
